In article PMC6886798, “Expression of myeloid Src-family kinases is associated with poor prognosis in AML and influences Flt3-ITD kinase inhibitor acquired resistance” (PLoS ONE, 2019):

What was measured:
Assay in all cases: KINOMEscan
Assay type in all cases: binding
Settings in all cases: 1.0 µM
TIE1 = molecular target: T1, TIE1 (Homo sapiens, UniProt P35590)
T1 construct: purchased Eurofins/DiscoverX KINOMEscan scanMAX
Procedure: (§1) Kinase retention to the immobilized ligand is then measured using quantitative real-time PCR for each kinase-specific DNA barcode.

NLK = molecular target: T2, NLK (Homo sapiens, UniProt Q9UBE8)
T2 construct: purchased Eurofins/DiscoverX KINOMEscan scanMAX
Procedure: as §1

FLT4 = molecular target: T3, FLT4 (Homo sapiens, UniProt P35916)
T3 construct: purchased Eurofins/DiscoverX KINOMEscan scanMAX
Procedure: as §1

[1] = molecular target: T4, ABL1(H396P)-phosphorylated (Homo sapiens, UniProt P00519, H396P)
T4 construct: purchased Eurofins/DiscoverX KINOMEscan scanMAX
Procedure: as §1

PIM2 = molecular target: T5, PIM2 (Homo sapiens, UniProt Q9P1W9)
T5 construct: purchased Eurofins/DiscoverX KINOMEscan scanMAX
Procedure: as §1

PKN2 = molecular target: T6, PKN2 (Homo sapiens, UniProt Q16513)
T6 construct: purchased Eurofins/DiscoverX KINOMEscan scanMAX
Procedure: as §1

CDK4-cyclinD1 = molecular target: T7, CDK4-cyclinD1 (Homo sapiens, UniProt P11802)
T7 construct: purchased Eurofins/DiscoverX KINOMEscan scanMAX
Procedure: as §1

CAMK4 = molecular target: T8, CAMK4 (Homo sapiens, UniProt Q16566)
T8 construct: purchased Eurofins/DiscoverX KINOMEscan scanMAX
Procedure: as §1

CIT = molecular target: T9, CIT (Homo sapiens, UniProt O14578)
T9 construct: purchased Eurofins/DiscoverX KINOMEscan scanMAX
Procedure: as §1

PAK2 = molecular target: T10, PAK2 (Homo sapiens, UniProt Q13177)
T10 construct: purchased Eurofins/DiscoverX KINOMEscan scanMAX
Procedure: as §1

GAK = molecular target: T11, GAK (Homo sapiens, UniProt O14976)
T11 construct: purchased Eurofins/DiscoverX KINOMEscan scanMAX
Procedure: as §1

NEK9 = molecular target: T12, NEK9 (Homo sapiens, UniProt Q8TD19)
T12 construct: purchased Eurofins/DiscoverX KINOMEscan scanMAX
Procedure: as §1

DRAK1 = molecular target: T13, DRAK1 (Homo sapiens, UniProt Q9UEE5)
T13 construct: purchased Eurofins/DiscoverX KINOMEscan scanMAX
Procedure: as §1

ZAP70 = molecular target: T14, ZAP70 (Homo sapiens, UniProt P43403)
T14 construct: purchased Eurofins/DiscoverX (KINOMEscan scanMAX service)
Procedure: as §1

ABL1-phosphorylated = molecular target: T15, ABL1-phosphorylated (Homo sapiens, UniProt P00519)
T15 construct: purchased Eurofins/DiscoverX KINOMEscan scanMAX
Procedure: as §1

PIK3CA(E542K) = molecular target: T16, PIK3CA(E542K) (Homo sapiens, UniProt P42336, E542K)
T16 construct: purchased Eurofins/DiscoverX KINOMEscan scanMAX
Procedure: as §1

RET(M918T) = molecular target: T17, RET(M918T) (Homo sapiens, UniProt P07949, M918T)
T17 construct: purchased Eurofins/DiscoverX KINOMEscan scanMAX
Procedure: as §1

TNK1 = molecular target: T18, TNK1 (Homo sapiens, UniProt Q13470)
T18 construct: purchased Eurofins/DiscoverX KINOMEscan scanMAX
Procedure: as §1

MKNK1 = molecular target: T19, MKNK1 (Homo sapiens, UniProt Q9BUB5)
T19 construct: purchased Eurofins/DiscoverX KINOMEscan scanMAX
Procedure: as §1

PRKCD = molecular target: T20, PRKCD (Homo sapiens, UniProt Q05655)
T20 construct: purchased Eurofins/DiscoverX KINOMEscan scanMAX
Procedure: as §1

TRPM6 = molecular target: T21, TRPM6 (Homo sapiens, UniProt Q9BX84)
T21 construct: DNA tag (qPCR barcode); purchased Eurofins/DiscoverX KINOMEscan scanMAX
Procedure: as §1

AURKC = molecular target: T22, AURKC (Homo sapiens, UniProt Q9UQB9)
T22 construct: purchased Eurofins/DiscoverX KINOMEscan scanMAX
Procedure: as §1

FRK = molecular target: T23, FRK (Homo sapiens, UniProt P42685)
T23 construct: purchased Eurofins/DiscoverX KINOMEscan scanMAX
Procedure: as §1

EPHA5 = molecular target: T24, EPHA5 (Homo sapiens, UniProt P54756)
T24 construct: purchased Eurofins/DiscoverX KINOMEscan scanMAX
Procedure: as §1

[2] = molecular target: T25, ABL1(F317I)-nonphosphorylated (Homo sapiens, UniProt P00519, F317I)
T25 construct: purchased Eurofins/DiscoverX KINOMEscan scanMAX
Procedure: as §1

PIK3CA(H1047L) = molecular target: T26, PIK3CA(H1047L) (Homo sapiens, UniProt P42336, H1047L)
T26 construct: purchased Eurofins/DiscoverX KINOMEscan scanMAX
Procedure: as §1

PLK1 = molecular target: T27, PLK1 (Homo sapiens, UniProt P53350)
T27 construct: purchased Eurofins/DiscoverX KINOMEscan scanMAX
Procedure: as §1

MUSK = molecular target: T28, MUSK (Homo sapiens, UniProt O15146)
T28 construct: purchased Eurofins/DiscoverX KINOMEscan scanMAX
Procedure: as §1

PFPK5(P.falciparum) = molecular target: T29, PFPK5(P.falciparum) (Plasmodium falciparum, UniProt P61075)
T29 construct: purchased Eurofins/DiscoverX KINOMEscan scanMAX
Procedure: as §1

SGK = molecular target: T30, SGK (Homo sapiens, UniProt O00141)
T30 construct: purchased Eurofins/DiscoverX KINOMEscan scanMAX
Procedure: as §1

RIPK4 = molecular target: T31, RIPK4 (Homo sapiens, UniProt P57078)
T31 construct: purchased Eurofins/DiscoverX KINOMEscan scanMAX
Procedure: as §1

WEE1 = molecular target: T32, WEE1 (Homo sapiens, UniProt P30291)
T32 construct: DNA tag (qPCR barcode); purchased Eurofins/DiscoverX KINOMEscan scanMAX
Procedure: as §1

EPHB2 = molecular target: T33, EPHB2 (Homo sapiens, UniProt P29323)
T33 construct: purchased Eurofins/DiscoverX KINOMEscan scanMAX
Procedure: as §1

EPHB1 = molecular target: T34, EPHB1 (Homo sapiens, UniProt P54762)
T34 construct: purchased Eurofins/DiscoverX KINOMEscan scanMAX
Procedure: as §1

TSSK3 = molecular target: T35, TSSK3 (Homo sapiens, UniProt Q96PN8)
T35 construct: DNA tag (qPCR barcode); purchased Eurofins/DiscoverX KINOMEscan scanMAX
Procedure: as §1

PIK4CB = molecular target: T36, PIK4CB (Homo sapiens, UniProt Q9UBF8)
T36 construct: purchased Eurofins/DiscoverX KINOMEscan scanMAX
Procedure: as §1

NIM1 = molecular target: T37, NIM1 (Homo sapiens, UniProt Q8IY84)
T37 construct: purchased Eurofins/DiscoverX KINOMEscan scanMAX
Procedure: as §1

CDC2L2 = molecular target: T38, CDC2L2 (Homo sapiens, UniProt Q9UQ88)
T38 construct: purchased Eurofins/DiscoverX KINOMEscan scanMAX
Procedure: as §1

GSK3A = molecular target: T39, GSK3A (Homo sapiens, UniProt P49840)
T39 construct: purchased Eurofins/DiscoverX KINOMEscan scanMAX
Procedure: as §1

YSK1 = molecular target: T40, YSK1 (Homo sapiens, UniProt O00506)
T40 construct: purchased Eurofins/DiscoverX (KINOMEscan scanMAX service)
Procedure: as §1

MEK2 = molecular target: T41, MEK2 (Homo sapiens, UniProt P36507)
T41 construct: purchased Eurofins/DiscoverX KINOMEscan scanMAX
Procedure: as §1

YES = molecular target: T42, YES (Homo sapiens, UniProt P07947)
T42 construct: purchased Eurofins/DiscoverX (KINOMEscan scanMAX service)
Procedure: as §1

T19 sequence (Q9BUB5 whole entry): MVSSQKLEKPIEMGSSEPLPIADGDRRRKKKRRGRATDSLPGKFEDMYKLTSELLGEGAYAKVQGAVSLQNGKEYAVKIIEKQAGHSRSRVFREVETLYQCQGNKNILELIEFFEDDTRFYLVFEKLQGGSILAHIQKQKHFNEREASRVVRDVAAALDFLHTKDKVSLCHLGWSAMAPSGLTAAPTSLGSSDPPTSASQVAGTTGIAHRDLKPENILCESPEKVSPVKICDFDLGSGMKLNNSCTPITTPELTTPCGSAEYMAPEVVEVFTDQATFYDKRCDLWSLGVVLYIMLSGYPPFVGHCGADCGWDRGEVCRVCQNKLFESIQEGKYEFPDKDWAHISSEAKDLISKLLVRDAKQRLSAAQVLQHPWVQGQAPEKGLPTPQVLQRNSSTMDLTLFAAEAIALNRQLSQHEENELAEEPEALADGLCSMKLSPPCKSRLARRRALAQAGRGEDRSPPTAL
T22 sequence (Q9UQB9 whole entry): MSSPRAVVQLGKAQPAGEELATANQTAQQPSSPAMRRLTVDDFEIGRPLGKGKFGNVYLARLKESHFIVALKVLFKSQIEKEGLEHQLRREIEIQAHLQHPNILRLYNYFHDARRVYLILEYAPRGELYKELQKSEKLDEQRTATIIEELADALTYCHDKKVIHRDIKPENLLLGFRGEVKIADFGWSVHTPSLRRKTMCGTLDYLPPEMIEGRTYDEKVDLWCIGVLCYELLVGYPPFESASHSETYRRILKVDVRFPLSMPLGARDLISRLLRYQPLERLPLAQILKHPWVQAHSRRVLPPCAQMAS
T37 sequence (Q8IY84 whole entry): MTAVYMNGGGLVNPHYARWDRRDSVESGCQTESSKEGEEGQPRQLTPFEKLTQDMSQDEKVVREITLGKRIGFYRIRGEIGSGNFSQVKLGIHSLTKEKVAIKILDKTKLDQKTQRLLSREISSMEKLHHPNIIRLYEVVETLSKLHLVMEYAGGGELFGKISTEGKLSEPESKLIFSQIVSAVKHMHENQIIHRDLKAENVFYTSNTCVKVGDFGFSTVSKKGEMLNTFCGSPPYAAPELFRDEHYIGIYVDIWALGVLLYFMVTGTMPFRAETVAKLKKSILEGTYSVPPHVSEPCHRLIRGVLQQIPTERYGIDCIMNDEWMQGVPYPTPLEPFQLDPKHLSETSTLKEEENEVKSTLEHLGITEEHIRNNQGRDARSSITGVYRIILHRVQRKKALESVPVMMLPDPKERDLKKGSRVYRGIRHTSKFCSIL
T31 sequence (P57078 whole entry): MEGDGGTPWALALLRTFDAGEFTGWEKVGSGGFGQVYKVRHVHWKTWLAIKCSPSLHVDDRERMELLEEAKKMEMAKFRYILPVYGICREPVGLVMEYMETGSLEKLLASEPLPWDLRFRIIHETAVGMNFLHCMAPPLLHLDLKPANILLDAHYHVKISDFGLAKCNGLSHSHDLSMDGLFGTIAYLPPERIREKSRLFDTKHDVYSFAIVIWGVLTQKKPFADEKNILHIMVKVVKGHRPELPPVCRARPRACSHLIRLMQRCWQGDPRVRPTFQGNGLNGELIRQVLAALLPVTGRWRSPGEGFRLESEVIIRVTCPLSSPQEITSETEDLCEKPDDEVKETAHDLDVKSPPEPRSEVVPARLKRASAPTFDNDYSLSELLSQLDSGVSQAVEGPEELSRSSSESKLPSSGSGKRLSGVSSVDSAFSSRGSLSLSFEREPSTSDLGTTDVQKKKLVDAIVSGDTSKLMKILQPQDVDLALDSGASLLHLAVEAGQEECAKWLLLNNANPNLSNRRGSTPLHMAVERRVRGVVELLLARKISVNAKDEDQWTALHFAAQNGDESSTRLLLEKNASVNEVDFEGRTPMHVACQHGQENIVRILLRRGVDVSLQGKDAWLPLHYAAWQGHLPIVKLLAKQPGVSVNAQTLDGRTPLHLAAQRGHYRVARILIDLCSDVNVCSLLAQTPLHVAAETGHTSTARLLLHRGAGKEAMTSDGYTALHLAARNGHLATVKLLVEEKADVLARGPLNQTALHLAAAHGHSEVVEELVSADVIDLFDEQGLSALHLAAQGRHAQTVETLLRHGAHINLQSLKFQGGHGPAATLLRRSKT
T13 sequence (Q9UEE5 whole entry): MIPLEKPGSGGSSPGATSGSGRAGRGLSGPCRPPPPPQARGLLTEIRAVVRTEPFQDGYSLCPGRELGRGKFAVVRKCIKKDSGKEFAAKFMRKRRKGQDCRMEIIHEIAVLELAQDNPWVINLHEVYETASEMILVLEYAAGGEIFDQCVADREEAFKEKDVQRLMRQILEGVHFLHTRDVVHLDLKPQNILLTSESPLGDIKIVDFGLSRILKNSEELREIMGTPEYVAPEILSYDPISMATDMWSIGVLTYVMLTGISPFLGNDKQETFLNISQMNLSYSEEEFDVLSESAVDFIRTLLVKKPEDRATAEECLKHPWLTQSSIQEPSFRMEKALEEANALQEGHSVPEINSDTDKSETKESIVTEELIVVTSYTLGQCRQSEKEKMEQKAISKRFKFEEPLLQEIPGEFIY
T10 sequence (Q13177 whole entry): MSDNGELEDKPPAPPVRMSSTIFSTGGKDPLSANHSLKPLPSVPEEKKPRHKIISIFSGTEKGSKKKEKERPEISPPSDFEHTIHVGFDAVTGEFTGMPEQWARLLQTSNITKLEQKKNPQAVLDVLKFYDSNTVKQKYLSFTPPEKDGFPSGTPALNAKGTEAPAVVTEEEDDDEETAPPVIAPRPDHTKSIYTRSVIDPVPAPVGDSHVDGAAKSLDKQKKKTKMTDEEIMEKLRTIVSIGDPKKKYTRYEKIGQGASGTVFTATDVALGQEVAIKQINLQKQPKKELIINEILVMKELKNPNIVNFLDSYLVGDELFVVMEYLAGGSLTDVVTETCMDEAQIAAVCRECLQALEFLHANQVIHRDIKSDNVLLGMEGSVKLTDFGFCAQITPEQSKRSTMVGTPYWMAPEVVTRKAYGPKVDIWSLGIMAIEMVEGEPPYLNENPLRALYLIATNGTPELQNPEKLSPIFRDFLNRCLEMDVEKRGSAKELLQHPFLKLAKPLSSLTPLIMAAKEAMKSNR
T7 sequence (P11802 whole entry): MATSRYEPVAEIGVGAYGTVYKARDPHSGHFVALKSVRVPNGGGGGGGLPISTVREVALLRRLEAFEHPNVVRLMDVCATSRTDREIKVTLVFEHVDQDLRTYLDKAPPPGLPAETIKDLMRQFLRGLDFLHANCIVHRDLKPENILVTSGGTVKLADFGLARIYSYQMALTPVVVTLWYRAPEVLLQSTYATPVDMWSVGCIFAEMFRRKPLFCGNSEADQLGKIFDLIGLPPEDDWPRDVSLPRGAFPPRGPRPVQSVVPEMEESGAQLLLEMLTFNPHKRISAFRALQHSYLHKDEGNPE
T7 sequence (P24385 whole entry partner): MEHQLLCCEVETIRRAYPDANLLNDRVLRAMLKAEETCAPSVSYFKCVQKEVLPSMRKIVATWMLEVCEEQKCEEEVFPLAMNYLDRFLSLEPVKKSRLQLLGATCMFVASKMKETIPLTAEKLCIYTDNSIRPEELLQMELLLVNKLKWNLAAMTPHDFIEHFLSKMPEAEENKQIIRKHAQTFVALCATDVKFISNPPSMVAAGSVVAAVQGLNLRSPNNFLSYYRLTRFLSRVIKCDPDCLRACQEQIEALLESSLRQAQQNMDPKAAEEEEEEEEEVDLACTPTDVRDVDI
T5 sequence (Q9P1W9 whole entry): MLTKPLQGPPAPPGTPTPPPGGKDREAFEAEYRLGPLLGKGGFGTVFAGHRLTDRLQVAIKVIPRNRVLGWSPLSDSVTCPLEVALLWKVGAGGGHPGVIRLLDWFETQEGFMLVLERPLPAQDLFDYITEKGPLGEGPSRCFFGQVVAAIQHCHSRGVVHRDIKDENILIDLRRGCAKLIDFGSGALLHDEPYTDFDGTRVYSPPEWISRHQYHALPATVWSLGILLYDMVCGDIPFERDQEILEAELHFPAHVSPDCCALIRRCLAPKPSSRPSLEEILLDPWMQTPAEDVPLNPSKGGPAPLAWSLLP
T41 sequence (P36507 whole entry): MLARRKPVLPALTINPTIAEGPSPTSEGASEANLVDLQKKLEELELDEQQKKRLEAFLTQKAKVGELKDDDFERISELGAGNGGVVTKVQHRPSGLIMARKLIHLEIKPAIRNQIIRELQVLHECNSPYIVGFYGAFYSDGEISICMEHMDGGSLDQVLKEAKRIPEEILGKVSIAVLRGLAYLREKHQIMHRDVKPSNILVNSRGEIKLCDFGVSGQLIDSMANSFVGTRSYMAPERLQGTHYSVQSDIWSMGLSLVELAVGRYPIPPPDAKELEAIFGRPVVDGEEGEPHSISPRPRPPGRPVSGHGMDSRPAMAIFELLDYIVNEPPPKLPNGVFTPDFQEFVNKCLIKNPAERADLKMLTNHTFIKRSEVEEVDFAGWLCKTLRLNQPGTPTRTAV
T30 sequence (O00141 whole entry): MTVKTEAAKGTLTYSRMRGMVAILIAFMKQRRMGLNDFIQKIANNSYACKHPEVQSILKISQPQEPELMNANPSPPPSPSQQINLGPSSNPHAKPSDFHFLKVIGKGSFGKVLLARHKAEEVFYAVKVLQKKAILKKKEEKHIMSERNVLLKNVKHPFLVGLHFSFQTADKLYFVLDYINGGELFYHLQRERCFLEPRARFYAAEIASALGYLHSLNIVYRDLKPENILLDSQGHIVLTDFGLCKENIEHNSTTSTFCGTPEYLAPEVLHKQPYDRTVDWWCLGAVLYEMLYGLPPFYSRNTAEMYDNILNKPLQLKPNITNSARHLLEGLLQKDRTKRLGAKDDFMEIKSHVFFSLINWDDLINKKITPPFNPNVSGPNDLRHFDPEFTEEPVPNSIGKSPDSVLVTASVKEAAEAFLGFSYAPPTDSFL

For CN1CCN(C2CCC(n3cc(-c4ccc(Oc5ccccc5)cc4)c4c(N)ncnc43)CC2)CC1 (stereo not drawn) [A-419259], the “% Control” value (TIE1) was 25%, the “% Control” value (NLK) was 83% and the “% Control” value (FLT4) was 19%. For the same compound, the “% Control” value [1] was 0.65%, the “% Control” value (PIM2) was 100% and the “% Control” value (PKN2) was 100%. The “% Control” value (CDK4-cyclinD1) was 27%, the “% Control” value (CAMK4) was 100% and the “% Control” value (CIT) was 79%. The “% Control” value (PAK2) was 91%, the “% Control” value (GAK) was 69% and the “% Control” value (NEK9) was 90%. The “% Control” value (DRAK1) was 65%, the “% Control” value (ZAP70) was 100% and the “% Control” value (ABL1-phosphorylated) was 0.25%. For the same compound, the “% Control” value (PIK3CA(E542K)) was 85%, the “% Control” value (RET(M918T)) was 0.1% and the “% Control” value (TNK1) was 0%. For the same compound, the “% Control” value (MKNK1) was 63%, the “% Control” value (PRKCD) was 89% and the “% Control” value (TRPM6) was 100%. For the same compound, the “% Control” value (AURKC) was 79%, the “% Control” value (FRK) was 5.3% and the “% Control” value (EPHA5) was 80%. For the same compound, the “% Control” value [2] was 2.5%, the “% Control” value (PIK3CA(H1047L)) was 98% and the “% Control” value (PLK1) was 100%. The “% Control” value (MUSK) was 100%, the “% Control” value (PFPK5(P.falciparum)) was 78% and the “% Control” value (SGK) was 75%. For the same compound, the “% Control” value (RIPK4) was 84%, the “% Control” value (WEE1) was 100% and the “% Control” value (EPHB2) was 100%. The “% Control” value (EPHB1) was 96%, the “% Control” value (TSSK3) was 95% and the “% Control” value (PIK4CB) was 83%. For the same compound, the “% Control” value (NIM1) was 100%, the “% Control” value (CDC2L2) was 91% and the “% Control” value (GSK3A) was 100%. The “% Control” value (YSK1) was 84%, the “% Control” value (MEK2) was 0.2% and the “% Control” value (YES) was 0%.
